Results reported in ChEMBL document CHEMBL1667785, “Synthesis and structure-analgesic activity relationships of a novel series of monospirocyclopiperazinium salts (MSPZ)” (Bioorg Med Chem Lett, 2011).

Assays:
Mus musculus = assay: Analgesic activity in mouse assessed as inhibition of acetic acid-induced writhing at 20 umol/kg, sc administered 30 mins before to acetic acid challenge measured after 5 mins for 10 mins relative to control; assay type: functional; design: scale not given: the % may be the effect or the level left
[1] = target: Neuronal acetylcholine receptor subunit beta-2 (Homo sapiens, UniProt P17787); assay: Binding affinity to beta2 nAChR
Chain of Neuronal acetylcholine receptor subunit beta-2 (P17787 whole entry): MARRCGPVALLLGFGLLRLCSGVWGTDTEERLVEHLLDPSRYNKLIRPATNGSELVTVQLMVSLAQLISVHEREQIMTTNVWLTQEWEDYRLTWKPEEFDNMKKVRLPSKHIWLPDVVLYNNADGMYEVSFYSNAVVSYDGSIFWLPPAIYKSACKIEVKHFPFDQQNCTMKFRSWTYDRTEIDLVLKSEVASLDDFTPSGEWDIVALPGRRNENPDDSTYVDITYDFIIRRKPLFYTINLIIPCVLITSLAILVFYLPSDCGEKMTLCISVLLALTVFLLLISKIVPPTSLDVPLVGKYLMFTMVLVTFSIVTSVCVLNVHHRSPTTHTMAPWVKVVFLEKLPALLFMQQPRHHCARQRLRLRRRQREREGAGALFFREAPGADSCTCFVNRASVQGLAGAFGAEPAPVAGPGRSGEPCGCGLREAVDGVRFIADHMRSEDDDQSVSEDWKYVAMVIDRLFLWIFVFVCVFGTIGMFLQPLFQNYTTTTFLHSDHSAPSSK

[2] = target: Neuronal acetylcholine receptor subunit alpha-7 (Homo sapiens, UniProt P36544); assay: Binding affinity to alpha7 nAChR
Chain of Neuronal acetylcholine receptor subunit alpha-7 (P36544 whole entry): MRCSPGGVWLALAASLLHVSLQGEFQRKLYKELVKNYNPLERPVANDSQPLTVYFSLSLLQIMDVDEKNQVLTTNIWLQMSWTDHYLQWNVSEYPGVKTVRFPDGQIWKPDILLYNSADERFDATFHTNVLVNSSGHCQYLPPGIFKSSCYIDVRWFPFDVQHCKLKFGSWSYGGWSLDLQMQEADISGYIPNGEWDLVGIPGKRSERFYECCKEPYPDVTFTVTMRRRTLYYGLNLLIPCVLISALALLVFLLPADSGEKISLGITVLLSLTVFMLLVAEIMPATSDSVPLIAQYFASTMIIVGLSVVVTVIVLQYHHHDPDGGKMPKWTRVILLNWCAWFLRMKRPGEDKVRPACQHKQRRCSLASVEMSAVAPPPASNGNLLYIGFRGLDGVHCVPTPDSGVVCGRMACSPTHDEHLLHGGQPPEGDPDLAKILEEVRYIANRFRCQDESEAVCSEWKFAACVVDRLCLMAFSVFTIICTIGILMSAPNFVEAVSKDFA

| SMILES | Activity (Mus musculus) | other results |
| --- | --- | --- |
| COc1ccc(N2CC[N+](C)(C)CC2)cc1.[Cl-] | 56% | – |
| CCCC[N+]1(CCCC)CCN(c2ccc(OC)cc2)CC1.[Cl-] | 54% | – |
| COc1ccc(N2CC[N+](C)(Cc3ccccc3)CC2)cc1.[Cl-] | 43% | – |
| COc1ccc(N2CC[N+]3(CCCC3)CC2)cc1.[Cl-] | 41% | – |
| COc1ccc(N2CC[N+]3(CCCCC3)CC2)cc1.[Cl-] | 26% | – |
| COc1ccc(N2CC[N+]3(CCCCCC3)CC2)cc1.[Cl-] | 28% | – |
| COc1ccc(N2CC[N+]3(CCOCC3)CC2)cc1.[Cl-] | 41% | – |
| COc1ccc(N2CC[N+]3(CC2)CC(C)OC(C)C3)cc1.[Cl-] (centres undefined) | 21% | – |
| COc1ccc(N2CC[N+]3(CCNCC3)CC2)cc1.[Cl-] | 5% | – |
| COc1ccc(N2CC[N+]3(CCN(C)CC3)CC2)cc1.[Cl-] | 32% | – |
| COc1ccc(N2CC[N+]3(CCN(CCc4ccccc4)CC3)CC2)cc1.[Cl-] | 27% | – |
| COc1ccc(N2CC[N+]3(CC2)CCN(c2ccc(OC)cc2)CC3)cc1.[Cl-] | 17% | – |
| COc1ccc(N2CC[N+]3(CCN(C(=O)c4ccccc4)CC3)CC2)cc1.[Cl-] | 50% | – |
| COc1ccc(N2CC[N+]3(CCc4ccccc43)CC2)cc1.[Cl-] | 63% | – |
| [Cl-].c1ccc(N2CC[N+]3(CCc4ccccc43)CC2)cc1 | 28% | – |
| CS(=O)(=O)[O-].O=[N+]([O-])c1ccc(N2CC[N+]3(CCc4ccccc43)CC2)cc1 | 54% | – |
| CS(=O)(=O)[O-].O=[N+]([O-])c1cccc(N2CC[N+]3(CCc4ccccc43)CC2)c1 | 39% | – |
| COc1cccc(N2CC[N+]3(CCc4ccccc43)CC2)c1.[Cl-] | 37% | – |
| Oc1cccc(N2CC[N+]3(CCc4ccccc43)CC2)c1.[Cl-] | 34% | – |
| CC(=O)Nc1cccc(N2CC[N+]3(CCc4ccccc43)CC2)c1.[Cl-] | 39% | – |
| Clc1ccccc1N1CC[N+]2(CCc3ccccc32)CC1.[Cl-] | 44% | – |
| COc1ccccc1N1CC[N+]2(CCc3ccccc32)CC1.[Cl-] | 39% | – |
| CC(COc1ccc(/C=C\c2ccccc2)cc1)[N+](C)(C)C (centres undefined) | – | Ki [1]: 39 µM; Ki [2]: 0.057 µM |
